Test system: K14 mouse model of type 2 Gaucher disease
Assay: K14 mouse model of type 2 Gaucher disease
Assay type: in vivo
Source text: As noted above, Gaucher Disease results from a deficiency of the lysosomal enzyme glucocerebrosidase (GC). In the most common phenotype of Gaucher disease (type 1), pathology is limited to the reticuloendothelial and skeletal systems and there are no neuropathic symptoms. See Barranger, Glucosylceramide lipidosis: Gaucher disease. In: Scriver C R B A, Sly W S, Valle D, editor. The Metabolic Basis of Inherited Disease. New York: McGraw-Hill. pp. 3635-3668 (2001). In neuropathic Gaucher disease (nGD), subdivided into type 2 and type 3 Gaucher disease, the deficiency of glucocerebrosidase (GC) causes glucosylceramide (GluCer; GL-1) and glucosylsphingosine (GluSph) to accumulate in the brain, leading to neurologic impairment. Type 2 Gaucher disease is characterized by early onset, rapid progression, extensive pathology in the viscera and central nervous system, and death usually by 2 years of age. Type 3 Gaucher disease, also known as subacute nGD, is an intermediate phenotype with varying age of onset and different degrees of severity and rates of progression. Goker-Alpan et al., The Journal of Pediatrics 143: 273-276 (2003). A recent development has produced the K14 lnl/lnl mouse model of type 2 Gaucher disease (hereinafter, the “K14 mouse”); this mouse model closely recapitulates the human disease showing ataxia, seizures, spasticity and a reduced median lifespan of only 14 days. Enquist et al., PNAS 104: 17483-17488 (2007).
As in patients with nGD, several mouse models of the disease have increased levels of GluCer and GluSph in the brain due to the deficiency in GC activity. Liu et al., PNAS 95: 2503-2508 (1998) and Nilsson, J. Neurochem 39: 709-718 (1982). The “K14” mice display a neuropathic phenotype that shares many pathologic features with type 2 Gaucher disease, such as neurodegeneration, astrogliosis, microglial proliferation, and increased levels of GluCer and GluSph in specific brain regions. Enquist et al. (2007).
Clinical management of patients affected by nGD poses a challenge for treating physicians both because of the severity of type 2 disease and the inability of the current therapies to cross the blood brain barrier (BBB). Current treatment of non-nGD relies on the intravenous delivery of recombinant human glucocerebrosidase (Imiglucerase; Cerezyme™) to replace the missing enzyme or the administration of glucosylceramide synthase inhibitors to attenuate substrate (GL-1) production. […] Current small molecule glucosylceramide synthase inhibitors in the clinic are not likely to address the neuropathic phenotypes of nGD.

Structure (SMILES): CC(C)(NC(=O)OC1CN2CCC1CC2)c1cccc(-c2ccc(F)cc2)c1 (stereo not shown) [Gz161, Quinuclidin-3-yl (2-(4′-fluoro-[1,1′-biphenyl]-3-yl)propan-2-yl)carbamate]
- brain neuropathology: reduced
- lifespan: extended
- brain GluCer (brain): reduce
- brain GluSph (brain): reduce

Source: patent US9518049B2, “Salt forms of (S)-quinuclidin-3-yl (2-(2-(4-fluorophenyl)thiazol-4-yl)propan-2-yl)carbamate” (Genzyme Corporation, priority 2013, dated 2016)
